The nature of the series: activity coefficient (dimensionless); of the first substance listed, at infinite dilution; xn = mol fraction of the nth substance listed. Particulars: 298.15 K; 238 kPa; Liquid; Chromatography; x1 = 0.

From the NIST ThermoML archive (doi:10.1016/j.fluid.2014.09.011) come the findings set out here.

± gives the expanded uncertainty stated by the source.

In the case of `CC(C)(C)Cl` [2-chloro-2-methylpropane] + CCCCCCCC, the activity coefficient was determined as 1.3 ± 0.2.
Consider `CC(C)(C)Cl` [2-chloro-2-methylpropane] + CC(O)C(C)O, for which the activity coefficient stood at 12.3 ± 2.
Regarding `CC(C)(C)Cl` [2-chloro-2-methylpropane] + CCC(O)CO, the activity coefficient stood at 6.4 ± 0.5.
On to `CC(C)(C)Cl` [2-chloro-2-methylpropane] + CCCCO, for which the activity coefficient amounted to 2.4 ± 0.4.
Turning to `CC(C)(C)Cl` [2-chloro-2-methylpropane] + OCCOCCO, the activity coefficient came to 11.2 ± 2.
As to `CC(C)(C)Cl` [2-chloro-2-methylpropane] + c1ccccc1, the activity coefficient was determined as 0.89 ± 0.08.
With `CC(C)(C)Cl` [2-chloro-2-methylpropane] + CCOC(C)=O, the activity coefficient turned out to be 0.9 ± 0.2.
As to `CC(C)(C)Cl` [2-chloro-2-methylpropane] + CNC=O, the activity coefficient amounted to 6.3 ± 0.3.
With `CC(C)(C)Cl` [2-chloro-2-methylpropane] + ClCCCl the figure was 0.99 ± 0.1; with `CC(C)(C)Cl` [2-chloro-2-methylpropane] + CCCCCO, 2.4 ± 0.4; with `CC(C)(C)Cl` [2-chloro-2-methylpropane] + CCCCCCC, 1.02 ± 0.08.
On to `CC(C)(C)Cl` [2-chloro-2-methylpropane] + OCCOCCOCCO, for which the activity coefficient amounted to 6.8 ± 0.8.
Consider `CC(C)(C)Cl` [2-chloro-2-methylpropane] + CC(C)O, for which the activity coefficient was found to be 3 ± 0.6.
As to `CC(C)(C)Cl` [2-chloro-2-methylpropane] + CCO, the activity coefficient amounted to 4.5 ± 0.6.
As for `CC(C)(C)Cl` [2-chloro-2-methylpropane] + OCCO, the activity coefficient is 51.7 ± 10.
With `CC(C)(C)Cl` [2-chloro-2-methylpropane] + CC(O)CO the figure was 17.3 ± 2.1; with `CC(C)(C)Cl` [2-chloro-2-methylpropane] + C1CCCCC1, 1.2 ± 0.2; with `CC(C)(C)Cl` [2-chloro-2-methylpropane] + COCCO, 2.9 ± 0.4.
With `CC(C)(C)Cl` [2-chloro-2-methylpropane] + CC(O)CCO the figure was 18.1 ± 3.1; with `CC(C)(C)Cl` [2-chloro-2-methylpropane] + CCCCCCO, 2.4 ± 0.2; with `CC(C)(C)Cl` [2-chloro-2-methylpropane] + CCCO, 3.1 ± 0.4.
In the case of `CC(C)(C)Cl` [2-chloro-2-methylpropane] + CO, the activity coefficient stood at 6.1 ± 0.3.
